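Dose response: 5 concentrations. Exposure: 48 h. Format: 96-well plates. Endpoint: linear interpolation; highest concentration if not reached. TGI denotes the concentration required for complete inhibition of growth.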
Columns and labels:
Assay in all cases: inhibition of tumour cell growth, NCI panel, 48 h
CAKI-1 renal = test system: CAKI-1 renal
SW-620 colon = test system: SW-620 colon
OVCAR-5 ovarian = test system: OVCAR-5 ovarian
SF-295 CNS = test system: SF-295 CNS
BT-549 breast = test system: BT-549 breast
SK-OV-3 ovarian = test system: SK-OV-3 ovarian
COLO 205 colon = test system: COLO 205 colon
IGROV1 ovarian = test system: IGROV1 ovarian
SF-268 CNS = test system: SF-268 CNS
UACC-62 melanoma = test system: UACC-62 melanoma
NCI-H226 lung = test system: NCI-H226 lung
EKVX NSCLC = test system: EKVX NSCLC
OVCAR-8 ovarian = test system: OVCAR-8 ovarian
SN12C renal = test system: SN12C renal
UO-31 renal = test system: UO-31 renal
SK-MEL-2 melanoma = test system: SK-MEL-2 melanoma
A549 NSCLC = test system: A549 NSCLC
NCI/ADR-RES ovarian = test system: NCI/ADR-RES ovarian
LOX IMVI melanoma = test system: LOX IMVI melanoma
SK-MEL-28 melanoma = test system: SK-MEL-28 melanoma
HCT-116 colon = test system: HCT-116 colon
RXF 393 renal = test system: RXF 393 renal
MOLT-4 leukemia = test system: MOLT-4 leukemia
U251 CNS = test system: U251 CNS
HOP-62 NSCLC = test system: HOP-62 NSCLC
MALME-3M melanoma = test system: MALME-3M melanoma
HT29 colon = test system: HT29 colon
SK-MEL-5 melanoma = test system: SK-MEL-5 melanoma
HS 578T breast = test system: HS 578T breast
HCT-15 colon = test system: HCT-15 colon
NCI-H460 lung = test system: NCI-H460 lung
HL-60(TB) leukemia = test system: HL-60(TB) leukemia
NCI-H522 lung = test system: NCI-H522 lung
UACC-257 melanoma = test system: UACC-257 melanoma
RPMI-8226 leukemia = test system: RPMI-8226 leukemia
SR leukemia = test system: SR leukemia
MDA-N = test system: MDA-N
K-562 leukemia = test system: K-562 leukemia
CCRF-CEM leukemia = test system: CCRF-CEM leukemia
T-47D breast = test system: T-47D breast
PC-3 prostate = test system: PC-3 prostate
KM12 colon = test system: KM12 colon
HCC-2998 colon = test system: HCC-2998 colon
MDA-MB-231 breast = test system: MDA-MB-231 breast
A498 renal = test system: A498 renal
MDA-MB-435 = test system: MDA-MB-435
NCI-H23 lung = test system: NCI-H23 lung
DU-145 prostate = test system: DU-145 prostate
786-0 renal = test system: 786-0 renal
OVCAR-3 ovarian = test system: OVCAR-3 ovarian
HOP-92 NSCLC = test system: HOP-92 NSCLC
OVCAR-4 ovarian = test system: OVCAR-4 ovarian
SNB-19 CNS = test system: SNB-19 CNS
ACHN renal = test system: ACHN renal
MCF7 breast = test system: MCF7 breast
M14 melanoma = test system: M14 melanoma
SF-539 CNS = test system: SF-539 CNS
TK-10 renal = test system: TK-10 renal

## CCOC(=O)C1(O)C(=O)C2=C3C(=O)OC(C4OC(=O)c5c(c(O)c(O)c(O)c5C31)-c1c(cc(O)c(O)c1O)C(=O)OC1COC(=O)c3cc(O)c(O)c(O)c3-c3c(cc(O)c(O)c3O)C(=O)OC14)[C@@H]2O (stereo not given in full)
CAKI-1 renal
  TGI: 25.9 µM
SW-620 colon
  TGI: 54.5 µM
OVCAR-5 ovarian
  TGI: 35.3 µM
SF-295 CNS
  TGI: 43 µM
BT-549 breast
  TGI: 61.5 µM
SK-OV-3 ovarian
  TGI: > 100 µM
COLO 205 colon
  TGI: 35.4 µM
IGROV1 ovarian
  TGI: 79.5 µM
SF-268 CNS
  TGI: 52.9 µM
UACC-62 melanoma
  TGI: 43.1 µM
NCI-H226 lung
  TGI: 48.6 µM
EKVX NSCLC
  TGI: 38.4 µM
OVCAR-8 ovarian
  TGI: 39.5 µM
SN12C renal
  TGI: 35.4 µM
UO-31 renal
  TGI: > 100 µM
SK-MEL-2 melanoma
  TGI: 94.7 µM
A549 NSCLC
  TGI: 44.4 µM
NCI/ADR-RES ovarian
  TGI: > 100 µM
LOX IMVI melanoma
  TGI: 39.3 µM
SK-MEL-28 melanoma
  TGI: > 100 µM
HCT-116 colon
  TGI: 30.8 µM
RXF 393 renal
  TGI: 36.8 µM
MOLT-4 leukemia
  TGI: 57.2 µM
U251 CNS
  TGI: 44.2 µM
HOP-62 NSCLC
  TGI: > 100 µM
MALME-3M melanoma
  TGI: 95.8 µM
HT29 colon
  TGI: 51.3 µM
SK-MEL-5 melanoma
  TGI: 27.8 µM
HS 578T breast
  TGI: > 100 µM
HCT-15 colon
  TGI: 40.8 µM
NCI-H460 lung
  TGI: > 100 µM
HL-60(TB) leukemia
  TGI: 72.7 µM
NCI-H522 lung
  TGI: 53.6 µM
UACC-257 melanoma
  TGI: > 100 µM
RPMI-8226 leukemia
  TGI: 85 µM
SR leukemia
  TGI: > 100 µM
MDA-N
  TGI: 37.8 µM
K-562 leukemia
  TGI: 56.9 µM
CCRF-CEM leukemia
  TGI: 52.6 µM
T-47D breast
  TGI: > 100 µM
PC-3 prostate
  TGI: > 100 µM
KM12 colon
  TGI: > 100 µM
HCC-2998 colon
  TGI: 95.4 µM
MDA-MB-231 breast
  TGI: 36.1 µM
A498 renal
  TGI: > 100 µM
MDA-MB-435
  TGI: 33.4 µM
NCI-H23 lung
  TGI: 39.5 µM
DU-145 prostate
  TGI: > 100 µM
786-0 renal
  TGI: 39.4 µM
OVCAR-3 ovarian
  TGI: 85.4 µM
HOP-92 NSCLC
  TGI: 86.5 µM
OVCAR-4 ovarian
  TGI: 45.1 µM
SNB-19 CNS
  TGI: > 100 µM
ACHN renal
  TGI: 35.2 µM
MCF7 breast
  TGI: 40.1 µM
M14 melanoma
  TGI: 67.6 µM

## CC1(C)OC2C(CO)OC(n3cnc(N)nc3=O)C2O1 (stereo not given)
CAKI-1 renal
  TGI: > 100 µM
SW-620 colon
  TGI: > 100 µM
SF-539 CNS
  TGI: > 100 µM
OVCAR-5 ovarian
  TGI: > 100 µM
SF-295 CNS
  TGI: > 100 µM
BT-549 breast
  TGI: > 100 µM
SK-OV-3 ovarian
  TGI: > 100 µM
COLO 205 colon
  TGI: > 100 µM
IGROV1 ovarian
  TGI: > 100 µM
SF-268 CNS
  TGI: > 100 µM
UACC-62 melanoma
  TGI: > 100 µM
NCI-H226 lung
  TGI: > 100 µM
EKVX NSCLC
  TGI: > 100 µM
OVCAR-8 ovarian
  TGI: > 100 µM
SN12C renal
  TGI: > 100 µM
UO-31 renal
  TGI: > 100 µM
SK-MEL-2 melanoma
  TGI: > 100 µM
A549 NSCLC
  TGI: > 100 µM
NCI/ADR-RES ovarian
  TGI: > 100 µM
LOX IMVI melanoma
  TGI: > 100 µM
SK-MEL-28 melanoma
  TGI: > 100 µM
HCT-116 colon
  TGI: > 100 µM
RXF 393 renal
  TGI: > 100 µM
MOLT-4 leukemia
  TGI: > 100 µM
U251 CNS
  TGI: > 100 µM
HOP-62 NSCLC
  TGI: > 100 µM
SK-MEL-5 melanoma
  TGI: > 100 µM
HS 578T breast
  TGI: > 100 µM
HCT-15 colon
  TGI: > 100 µM
NCI-H460 lung
  TGI: > 100 µM
HL-60(TB) leukemia
  TGI: > 100 µM
NCI-H522 lung
  TGI: > 100 µM
UACC-257 melanoma
  TGI: > 100 µM
RPMI-8226 leukemia
  TGI: > 100 µM
SR leukemia
  TGI: > 100 µM
MDA-N
  TGI: > 100 µM
K-562 leukemia
  TGI: > 100 µM
CCRF-CEM leukemia
  TGI: > 100 µM
T-47D breast
  TGI: > 100 µM
PC-3 prostate
  TGI: > 100 µM
HCC-2998 colon
  TGI: > 100 µM
MDA-MB-231 breast
  TGI: > 100 µM
A498 renal
  TGI: > 100 µM
MDA-MB-435
  TGI: > 100 µM
NCI-H23 lung
  TGI: > 100 µM
DU-145 prostate
  TGI: > 100 µM
786-0 renal
  TGI: > 100 µM
OVCAR-3 ovarian
  TGI: > 100 µM
HOP-92 NSCLC
  TGI: > 100 µM
SNB-19 CNS
  TGI: > 100 µM
ACHN renal
  TGI: > 100 µM
MCF7 breast
  TGI: > 100 µM
M14 melanoma
  TGI: > 100 µM
TK-10 renal
  TGI: > 100 µM
